Test results taken from ChEMBL document CHEMBL4476868, “Benzimidazole derivatives and uses thereof” (2017).
pIC50: −log10 of the molar value.

Target: Acetyl-coenzyme A synthetase, cytoplasmic (Homo sapiens, UniProt Q9NR19)
Experiment: Inhibition of N-terminal 6x-histidine tagged human ACSS2 expressed in insect cells assessed as reduction in pyrophosphate production using CoA and ATP incubated for 30 mins by pyrophosphatase coupled enzymatic assay

Acetyl-coenzyme A synthetase, cytoplasmic, sequence (Q9NR19 whole entry): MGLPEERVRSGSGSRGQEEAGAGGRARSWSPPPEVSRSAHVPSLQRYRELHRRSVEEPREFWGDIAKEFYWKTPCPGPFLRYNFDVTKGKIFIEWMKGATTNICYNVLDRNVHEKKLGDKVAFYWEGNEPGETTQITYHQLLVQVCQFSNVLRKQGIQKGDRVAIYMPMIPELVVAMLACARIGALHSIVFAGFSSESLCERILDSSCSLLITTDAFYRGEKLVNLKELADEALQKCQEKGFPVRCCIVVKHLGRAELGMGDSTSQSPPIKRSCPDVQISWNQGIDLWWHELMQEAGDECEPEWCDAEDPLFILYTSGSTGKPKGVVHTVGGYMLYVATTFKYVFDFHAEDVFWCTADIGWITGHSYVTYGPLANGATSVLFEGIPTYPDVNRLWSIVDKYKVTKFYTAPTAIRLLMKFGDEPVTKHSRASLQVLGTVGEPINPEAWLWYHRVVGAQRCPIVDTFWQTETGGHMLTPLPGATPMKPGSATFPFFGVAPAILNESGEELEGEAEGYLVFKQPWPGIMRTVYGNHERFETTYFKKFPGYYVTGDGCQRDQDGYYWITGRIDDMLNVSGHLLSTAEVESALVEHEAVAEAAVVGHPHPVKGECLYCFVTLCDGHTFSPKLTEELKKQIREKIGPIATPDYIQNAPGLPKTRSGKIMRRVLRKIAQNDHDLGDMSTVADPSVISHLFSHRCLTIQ

Row | SMILES | pIC50
1 | C[C@@H](O)CNC(=O)c1ccc2nc(C(O)(c3ccc(F)cc3)c3ccc(F)cc3)n(C)c2c1 | 6.00 to 6.60
2 | CCn1c(C(O)(c2ccccc2)c2ccccc2)nc2ccc(C)c(OC)c21 | 6.00 to 6.60
3 | CCn1c(C(O)(c2ccccc2)c2ccccc2)nc2ccc(C(=O)NC[C@@H](C)O)c(OC)c21 | 6.00 to 6.60
4 | COc1ccc(C(O)(c2ccccc2)c2nc3ccc(C)cc3n2C)cn1 (stereo not drawn) | < 6.00
5 | C[C@@H](O)CNC(=O)c1ccc2nc(C(O)(c3ccccc3)c3ccccc3)n(CC(F)(F)F)c2c1 | 6.00 to 6.60
6 | CCn1c(C(O)(c2ccccc2)c2ccccc2)nc2ccc(C3(O)CCCCC3)cc21 | 6.00 to 6.60
7 | C[C@@H](O)CNC(=O)c1ccc2nc(C(O)(c3ccc(F)cc3)c3ncccc3F)n(C)c2c1 (stereo partly drawn) | 6.00 to 6.60
8 | CCn1c(C(O)(c2ccc(F)cc2)c2ccc(F)cc2)nc2ccc(C(=O)NC[C@@H](C)O)cc21 | 6.00 to 6.60
9 | CCn1c(C(O)(c2ccccc2)c2ccccc2)nc2ccc(OCCNC)cc21 | < 6.00
10 | CCn1c(C(O)(c2ccccc2)c2ccccc2)nc2ccc(C(=O)N[C@@H]3CCC(=O)N(C)C3)cc21 | 6.00 to 6.60
11 | Cc1cccnc1C(O)(c1ccc(F)cc1)c1nc2ccc(C(=O)NC[C@@H](C)O)cc2n1C (stereo partly drawn) | 6.00 to 6.60
12 | CCn1c(C(O)(c2ccccc2)c2ccccc2)nc2ccc(C(F)(F)C#N)cc21 | 6.00 to 6.60
13 | CCn1ccc(-c2ccc3nc(C(O)(c4ccccc4)c4ccccc4)n(CC)c3c2)n1 | 6.00 to 6.60
14 | CCn1c(C(O)(c2ccccc2)c2ccccc2)nc2c(OC)cc(C(=O)NC[C@@H](C)O)cc21 | 6.00 to 6.60
15 | CCn1c(C(O)(c2ccccc2)c2ccccc2)nc2ccc(C(=O)N3CCCC3)cc21 | < 6.00
16 | CCn1c(C(O)(c2ccccc2)c2ccccc2)nc2ccc(C3(O)COC3)cc21 | 6.00 to 6.60
17 | CCn1c(C(O)(c2ccccc2)c2ccccc2)nc2ccc(C3(O)CCC3)cc21 | < 6.00
18 | C[C@@H](O)CNC(=O)c1ccc2nc(C(O)(c3ccccc3)c3ccccc3)n(C3CCNCC3)c2c1 | < 6.00
19 | CCn1c(C(O)(c2ccccc2)c2ccccc2)nc2ccc(C(=O)N3CCC(N)CC3)cc21 | < 6.00
20 | CCn1c(C(O)(c2ccc(C)cc2)c2ncccc2C)nc2ccc(CCCO)cc21 (stereo not drawn) | 6.00 to 6.60
21 | CNC(=O)c1cccc(C(O)(c2ccccc2)c2nc3ccc(Cl)cc3n2C)c1 (stereo not drawn) | < 6.00
22 | CCn1ccc(-c2cc3c(cc2F)nc(C(O)(c2ccccc2)c2ccccc2)n3CC)n1 | 6.00 to 6.60
23 | C[C@@H](O)CNC(=O)c1ccc2nc(C(O)(c3ccc(F)cc3F)c3ccc(F)cc3F)n(C)c2c1 | 6.00 to 6.60
24 | CCn1c(C(OC)(c2ccccc2)c2ccccc2)nc2ccc(C(=O)NCC(F)(F)C#N)cc21 | 6.00 to 6.60
25 | CCn1c(C(O)(c2ccccc2)c2ccccc2)nc2cccc(Cl)c21 | < 6.00

Row | SMILES | pIC50
26 | CCn1c(C(O)(c2ccccc2)c2ccccc2)nc2ccc(C(=O)N3CCNCC3)cc21 | < 6.00
27 | C[C@@H](O)CNC(=O)c1ccc2nc(C(c3ccccc3)c3ccccc3)[nH]c2c1 | < 6.00
28 | CCn1c(C(O)(c2ccccc2)c2ccccc2)nc2ccc(C3CC3)cc21 | 6.00 to 6.60
29 | CCn1c(C(O)(c2ccccc2)c2ccccc2)nc2cccc(OC)c21 | < 6.00
30 | Cn1c(C(O)(c2ccccc2)c2cccc(C(=O)NCCO)c2)nc2ccc(Cl)cc21 (stereo not drawn) | < 6.00
31 | CCc1ccc2nc(C(O)(c3ccccc3)c3ccccc3)n(CC)c2c1 | 6.00 to 6.60
32 | Cc1cccnc1C(O)(c1ccccc1)c1nc2ccc(C(=O)NC[C@@H](C)O)cc2n1C (stereo partly drawn) | 6.00 to 6.60
33 | CCn1c(C(O)(c2ccccc2)c2ccccc2)nc2ccc(F)c(F)c21 | < 6.00
34 | C=CCC(CO)(CO)c1ccc2nc(C(O)(c3ccccc3)c3ccccc3)n(CC)c2c1 | 6.00 to 6.60
35 | CCn1c(C(O)(c2ccccc2)c2ccccc2)nc2c1cnn2C | 6.00 to 6.60
36 | CCn1c(C(O)(c2ccccc2)c2ccccc2)nc2cc(F)c(C(=O)NCCO)cc21 | 6.00 to 6.60
37 | CCn1c(C(O)(c2ccccc2)c2ccccc2)nc2ccc(C(=O)N3CCC(O)C3)cc21 (stereo not drawn) | < 6.00
38 | CCN1CCC[C@@H](NC(=O)c2ccc3nc(C(O)(c4ccccc4)c4ccccc4)n(CC)c3c2)C1 | 6.00 to 6.60
39 | CCCc1ccc2nc(C(O)(c3ccccc3)c3ccccc3)n(CC)c2c1 | < 6.00
40 | CCn1c(C(O)(c2ccccc2)c2ccccc2)nc2cnc(OCCCO)cc21 | 6.00 to 6.60
41 | CCn1c(C(O)(c2ccc(F)cc2F)c2ccc(F)cc2F)nc2ccc(C(=O)NCCO)cc21 | 6.00 to 6.60
42 | CCn1c(C(O)(c2ccccc2)c2ccccc2)nc2ccc(C(=O)N3CCC(N)C3)cc21 (stereo not drawn) | < 6.00
43 | CCn1c(C(O)(c2ccccc2)c2ccccc2)nc2ccc(OCCN(C)C(C)=O)cc21 | < 6.00
44 | C[C@@H](O)CNC(=O)c1ccc2nc(C(O)(c3ccccc3)c3ccccc3)n(CC(O)CO)c2c1 (stereo partly drawn) | 6.00 to 6.60
45 | CCn1c(C(O)(c2ccccc2)c2ccccc2)nc2cc(F)c(C(=O)NC[C@@H](C)O)cc21 | 6.00 to 6.60
46 | CCn1c(C(O)(c2ccccc2)c2ccccc2)nc2ccc(C3(O)CCOCC3)cc21 | < 6.00
47 | C[C@@H](O)CNC(=O)c1ccc2nc(C(O)(c3ccccc3)c3ccccc3)n(C3CCNC3)c2c1 (stereo partly drawn) | < 6.00
48 | Cc1ccc2c(c1)nc(C(O)(c1ccccc1)c1ccccc1)n2C | 6.00 to 6.60
49 | CCn1c(C(O)(c2ccccc2)c2ccccc2)nc2ccc(OC(C)C)cc21 | < 6.00
50 | CCn1c(C(O)(c2ccccc2)c2cccc(-c3ncco3)c2)nc2ccc(C(=O)NC)cc21 (stereo not drawn) | < 6.00

Row | SMILES | pIC50
51 | CCn1c(C(O)(c2ccccc2)c2ccccc2)nc2cc(OC)ncc21 | 6.00 to 6.60
52 | CCn1c(C(O)(c2ccccc2)c2ccccc2)nc2ccc(C(=O)NC3CC(F)(F)C3)cc21 | 6.00 to 6.60
53 | CCn1c(C(O)(c2ccccc2)c2ccccc2)nc2ccc(CNC(=O)[C@H](C)O)cc21 | 6.00 to 6.60
54 | CCn1c(C(O)(c2ccccc2)c2ccccc2)nc2ccc(OCCN(C)C)cc21 | < 6.00
55 | CCn1c(C(O)(c2ccccc2)c2ccccc2)nc2cccc(F)c21 | < 6.00
56 | CCn1c(C(O)(c2ccccc2)c2ccccc2)nc2cnc(OCCO)cc21 | 6.00 to 6.60
57 | Cn1c(C(O)(c2ccccc2)c2ccc(Cl)cc2)nc2ccc(C#N)cc21 (stereo not drawn) | < 6.00
58 | C[C@@H](O)CNC(=O)c1ccc2nc(C(O)(c3ccccc3)c3ncccc3F)n(C)c2c1 (stereo partly drawn) | 6.00 to 6.60
59 | CCN1CC[C@H](NC(=O)c2ccc3nc(C(O)(c4ccccc4)c4ccccc4)n(CC)c3c2)C1 | 6.00 to 6.60
60 | CCn1c(C(c2ccccc2)c2ccccc2)nc2ccc(C(=O)NC)cc21 | < 6.00
61 | Cc1ccc2nc(C(O)(c3ccccc3)c3ncccc3C)n(C)c2c1 (stereo not drawn) | < 6.00
62 | CCn1c(C(O)(c2ccc(C)cc2)c2ncccc2F)nc2ccc(CCCO)cc21 (stereo not drawn) | 6.00 to 6.60
63 | C[C@@H](O)CNC(=O)c1ccc2nc(C(O)(c3ccccc3)c3ccccc3)n(C3CCOCC3)c2c1 | < 6.00
64 | CCn1c(C(O)(c2ccccc2)c2ccccc2)nc2c(Cl)cc(C(=O)NC[C@@H](C)O)cc21 | 6.00 to 6.60
65 | CCn1c(C(O)(c2ccc(F)cc2F)c2ncccc2C)nc2ccc(CCCO)cc21 (stereo not drawn) | < 6.00
66 | CCn1c(C(O)(c2ccccc2)c2ccccc2)nc2ccc(OCC(C)O)cc21 (stereo not drawn) | < 6.00
67 | CCn1c(C(O)(c2ccccc2)c2ccccc2)nc2ccc(C(=O)N3CCN(C)CC3)cc21 | < 6.00
68 | CCn1c(C(O)(c2ccccc2)c2ccccc2)nc2ccc(C)c(F)c21 | 6.00 to 6.60
69 | CCn1c(C(O)(c2ccccc2)c2ccccc2)nc2ccc(C(=O)N3CCC(O)CC3)cc21 | < 6.00
70 | CCn1c(C(O)(c2ccccc2)c2ccc(F)cc2F)nc2ccc(C(=O)NCCO)cc21 (stereo not drawn) | 6.00 to 6.60
71 | CCn1c(C(O)(c2ccccc2)c2ccccc2)nc2ccc(Oc3ccccc3)cc21 | 6.00 to 6.60
72 | CCOc1cccc2nc(C(O)(c3ccccc3)c3ccccc3)n(CC)c12 | < 6.00
73 | CCN1CCC[C@H](NC(=O)c2ccc3nc(C(O)(c4ccccc4)c4ccccc4)n(CC)c3c2)C1 | 6.00 to 6.60
74 | COCCNC(=O)c1cccc(C(O)(c2ccccc2)c2nc3ccc(Cl)cc3n2C)c1 (stereo not drawn) | < 6.00
75 | CCOc1cc2c(cn1)nc(C(O)(c1ccccc1)c1ccccc1)n2CC | 6.00 to 6.60

Row | SMILES | pIC50
76 | CN(C)C(=O)c1cccc(C(O)(c2ccccc2)c2nc3ccc(Cl)cc3n2C)c1 (stereo not drawn) | < 6.00
77 | Cc1ccc2nc(C(O)(c3ccccc3)c3cccc(=O)n3C)n(C)c2c1 (stereo not drawn) | < 6.00
78 | C[C@@H](O)CNC(=O)c1ccc2nc(C(O)(c3ccccc3)c3ccccc3)n(CC3CCOCC3)c2c1 | < 6.00
79 | C[C@@H](O)CNC(=O)c1ccc2nc(C(O)(c3ccccc3)c3ccccc3)n(-c3ccccc3)c2c1 | 6.00 to 6.60
80 | COCCn1c(C(O)(c2ccccc2)c2ccccc2)nc2ccc(C(=O)NC[C@@H](C)O)cc21 | 6.00 to 6.60
81 | CCn1c(C(O)(c2ccccc2)c2ccccc2)nc2ccc(C3(O)CCCC3)cc21 | 6.00 to 6.60
82 | CCn1c(C(O)(c2ccccc2)c2ccccc2)nc2cccc(C)c21 | < 6.00
83 | CCn1c(C(O)(c2ccccc2)c2ccccc2)nc2ccc(C(=O)N3CCOCC3)cc21 | < 6.00
84 | CNC(=O)c1ccc2nc(C(c3ccccc3)c3ccccc3)[nH]c2c1 | < 6.00
85 | Cc1ccc2nc(C(O)(c3ccccc3)c3ncccc3F)n(C)c2c1 (stereo not drawn) | < 6.00
86 | CCn1c(C(O)(c2ccccc2)c2ccccc2)nc2ccc(OCC3CC3)cc21 | < 6.00
87 | Cc1cccc2c1nc(C(O)(c1ccccc1)c1ccccc1)n2C | < 6.00
88 | CCn1c(C(O)(c2ccccc2)c2ccccc2)nc2ccc(F)cc21 | < 6.00
89 | CCn1ccc(NC(=O)c2ccc3nc(C(O)(c4ccccc4)c4ccccc4)n(CC)c3c2)n1 | < 6.00
90 | CCn1c(C(O)(c2ccccc2)c2ccccc2)nc2ccc(OCCOC)cc21 | < 6.00
91 | CCNC(=O)c1cccc(C(O)(c2ccccc2)c2nc3ccc(Cl)cc3n2C)c1 (stereo not drawn) | < 6.00
92 | CCn1c(C(O)(c2ccccc2)c2ccccc2)nc2ccc(CNC(=O)[C@@H](C)O)cc21 | 6.00 to 6.60
93 | Cc1ccc2nc(C(O)(c3ccccc3)c3ccn(C)c(=O)c3)n(C)c2c1 (stereo not drawn) | < 6.00
94 | CCn1c(C(O)(c2ccccc2)c2ccccc2)nc2ccc(C3(O)CCOC3)cc21 (stereo not drawn) | < 6.00
95 | Cn1c(C(O)(c2ccc(F)cc2F)c2ccc(F)cc2F)nc2ccc(C(=O)NCCO)cc21 | 6.00 to 6.60
96 | CC(=O)OCC(O)(c1ccccc1)c1nc2ccc(C)cc2n1C (stereo not drawn) | 6.00 to 6.60
97 | CCn1c(C(O)(c2ccccc2)c2ccccc2)nc2ccc(COc3ccccc3)cc21 | 6.00 to 6.60
98 | CCn1c(C(O)(c2ccccc2)c2ccccc2)nc2ccnc(OCCO)c21 | 6.00 to 6.60
